Laboratory results published in ChEMBL document CHEMBL3603789, “N-Lipidated Peptide Dimers: Effective Antibacterial Agents against Gram-Negative Pathogens through Lipopolysaccharide Permeabilization” (J Med Chem, 2015).
≈ marks a conversion by molar mass, not a printed value. Calls of active or inactive are those of the source. The rule behind the calls is not given here. Bridge positions count the residues as written; N and C are the ends. Peptide text beside a SMILES is read from it. I, II: the chains in the order shown. * marks the point of attachment. Decanoyl = CCCCCCCCCC(=O)*; Octanoyl = CCCCCCCC(=O)*; Butyryl = CCCC(=O)*

Columns and labels:
Pseudomonas aeruginosa [1] = test: Antibacterial activity against Pseudomonas aeruginosa DR4877 after 24 hrs by broth microdilution method; assay type: functional; settings: DR4877, 24 h
Lipopolysaccharide (LPS) [2] = test: Induction of Escherichia coli 0111:B4 LPS neutralization using p-nitroaniline assessed as concentration required to neutralize 50% after 1 hr by limulus amebocyte lysate assay
[3] = Induction of calcein leakage from DOPE/DOPG artificial membrane at 1:32 ratio of compound to lipid by fluorescence assay; assay type: physicochemical
Pseudomonas aeruginosa [4] = test: Antibacterial activity against Pseudomonas aeruginosa DR5790 after 24 hrs by broth microdilution method; assay type: functional; settings: DR5790, 24 h
Pseudomonas aeruginosa [5] = test: Antibacterial activity against Pseudomonas aeruginosa DR18531 after 24 hrs by broth microdilution method; assay type: functional; settings: DR18531, 24 h
Pseudomonas aeruginosa [6] = test: Induction of cytoplasmic membrane depolarization in Pseudomonas aeruginosa DM23155 at 4 times MIC after 1 hr by fluorescence assay; assay type: functional, organism-based
Lipopolysaccharide (LPS) [7] = test: Displacement of dansylcadaverine from Escherichia coli 0111:B4 LPS at 15 to 30 uM after 5 mins by high-throughput fluorescence displacement assay
Pseudomonas aeruginosa [8] = test: Antibacterial activity against Pseudomonas aeruginosa DM4150R after 24 hrs by broth microdilution method; assay type: functional
Escherichia coli [9] = test: Antibacterial activity against Escherichia coli ATCC 25922 after 24 hrs by broth microdilution method; assay type: functional; settings: ATCC 25922, 24 h
[10] = Induction of calcein leakage from DOPC artificial membrane at 1:32 ratio of compound to lipid by fluorescence assay; assay type: physicochemical
Pseudomonas aeruginosa [11] = test: Antibacterial activity against Pseudomonas aeruginosa DM23155 after 24 hrs by broth microdilution method; assay type: functional; settings: DM23155, 24 h
Pseudomonas aeruginosa [12] = test: Induction of cytoplasmic membrane disruption in Pseudomonas aeruginosa DM23155 assessed as membrane integrity at 2 times MIC after 1 hr by fluorescence assay; assay type: functional
[13] = Toxicity in New Zealand white rabbit erythrocytes assessed as hemolytic activity after 60 mins; assay type: cell-based, Oryctolagus cuniculus; settings: erythrocyte, 1 h
Pseudomonas aeruginosa [14] = test: Antibacterial activity against Pseudomonas aeruginosa DU14476 after 24 hrs by broth microdilution method; assay type: functional; settings: DU14476, 24 h
Pseudomonas aeruginosa [15] = test: Antibacterial activity against Pseudomonas aeruginosa DM23257 after 24 hrs by broth microdilution method; assay type: functional; settings: DM23257, 24 h
Pseudomonas aeruginosa [16] = test: Antibacterial activity against Pseudomonas aeruginosa ATCC 27853 after 24 hrs by broth microdilution method; assay type: functional; settings: ATCC 27853, 24 h
Pseudomonas aeruginosa [17] = test: Induction of cytoplasmic membrane disruption in Pseudomonas aeruginosa DM23155 assessed as membrane integrity at 1 to 2 times MIC after 1 hr by fluorescence assay; assay type: functional
Pseudomonas aeruginosa [18] = test: Antibacterial activity against Pseudomonas aeruginosa DM23376 after 24 hrs by broth microdilution method; assay type: functional; settings: DM23376, 24 h
Pseudomonas aeruginosa [19] = test: Antibacterial activity against Pseudomonas aeruginosa ATCC 9027 after 24 hrs by broth microdilution method; assay type: functional; settings: ATCC 9027, 24 h
Klebsiella pneumoniae = test: Antibacterial activity against Klebsiella pneumoniae DM4299 after 24 hrs by broth microdilution method; assay type: functional; settings: DM4299, 24 h
Pseudomonas aeruginosa [20] = test: Induction of 1-N-phenylnaphthylamine uptake in Pseudomonas aeruginosa DM23155 at 400 uM after 1 hr by fluorescence assay relative to polymyxin B; assay type: functional
Lipopolysaccharide (LPS) [21] = test: Induction of Pseudomonas aeruginosa serotype 10 LPS neutralization using p-nitroaniline assessed as concentration required to neutralize 50% after 1 hr by limulus amebocyte lysate assay
Pseudomonas aeruginosa [22] = test: Antibacterial activity against Pseudomonas aeruginosa DM23155 assessed as log reduction of viable count at 2 times MIC after 30 mins by time-kill assay relative to control; assay type: functional
Escherichia coli [23] = test: Antibacterial activity against Escherichia coli ATCC 25922 after 24 hrs by checkerboard assay in presence of erythromycin; assay type: functional
Pseudomonas aeruginosa [24] = test: Antibacterial activity against Pseudomonas aeruginosa DM23155 after 24 hrs by checkerboard assay in presence of gentamicin; assay type: functional
Pseudomonas aeruginosa [25] = test: Antibacterial activity against Pseudomonas aeruginosa DM23155 assessed as log reduction of viable count at 1 to 2 times MIC after 24 hrs by time-kill assay; assay type: functional, organism-based
Pseudomonas aeruginosa [26] = test: Antibacterial activity against Pseudomonas aeruginosa DM23155 after 24 hrs by checkerboard assay in presence of kanamycin; assay type: functional
Pseudomonas aeruginosa [27] = test: Antibacterial activity against Pseudomonas aeruginosa DM23155 assessed as log reduction of viable count at 1 to 2 times MIC by time-kill assay relative to control; assay type: functional, organism-based
Pseudomonas aeruginosa [28] = test: Antibacterial activity against Pseudomonas aeruginosa DM23155 after 24 hrs by checkerboard assay in presence of streptomycin; assay type: functional
Escherichia coli [29] = test: Antibacterial activity against Escherichia coli ATCC 25922 after 24 hrs by checkerboard assay in presence of streptomycin; assay type: functional
Pseudomonas aeruginosa [30] = test: Antibacterial activity against Pseudomonas aeruginosa DM23155 assessed as log reduction of viable count MIC up to 24 hrs by time-kill assay; assay type: functional, organism-based
Pseudomonas aeruginosa [31] = test: Antibacterial activity against Pseudomonas aeruginosa DM23155 after 24 hrs by checkerboard assay in presence of nalidixic acid; assay type: functional
Escherichia coli [32] = test: Antibacterial activity against Escherichia coli ATCC 25922 after 24 hrs by checkerboard assay in presence of gentamicin; assay type: functional
Pseudomonas aeruginosa [33] = test: Antibacterial activity against Pseudomonas aeruginosa DM23155 after 24 hrs by checkerboard assay in presence of erythromycin; assay type: functional
Escherichia coli [34] = test: Antibacterial activity against Escherichia coli ATCC 25922 after 24 hrs by checkerboard assay in presence of nalidixic acid; assay type: functional
Escherichia coli [35] = test: Antibacterial activity against Escherichia coli ATCC 25922 after 24 hrs by checkerboard assay in presence of kanamycin; assay type: functional

SMILES	MIC (Pseudomonas aeruginosa [1]) [µM]	EC50 (Lipopolysaccharide (LPS) [2]) [µM]	Activity [3]	MIC (Pseudomonas aeruginosa [4]) [µM]	MIC (Pseudomonas aeruginosa [5]) [µM]	Activity (Pseudomonas aeruginosa [6])	Activity (Lipopolysaccharide (LPS) [7]) [%]	MIC (Pseudomonas aeruginosa [8]) [µM]	MIC (Escherichia coli [9]) [µM]	Activity [10]	MIC (Pseudomonas aeruginosa [11]) [µM]	HC10 [13] [µg/mL]	MIC (Pseudomonas aeruginosa [14]) [µM]	MIC (Pseudomonas aeruginosa [15]) [µM]	MIC (Pseudomonas aeruginosa [16]) [µM]	Activity (Pseudomonas aeruginosa [17]) [%]	MIC (Pseudomonas aeruginosa [18]) [µM]	MIC (Pseudomonas aeruginosa [19]) [µM]	MIC (Klebsiella pneumoniae) [µM]	Activity (Pseudomonas aeruginosa [20]) [%]	also measured
CCCCCCCCCC(=O)N[C@@H](CCCNC(=N)N)C(=O)NCC(=O)N[C@@H](CCCNC(=N)N)C(=O)N[C@@H](CCCCN)C(=O)N[C@H](C(=O)N[C@H](C(=O)N[C@@H](CCCNC(=N)N)C(=O)N[C@@H](CCCNC(=N)N)C(=O)NCCCC[C@H](NC(=O)[C@H](CCCNC(=N)N)NC(=O)[C@H](CCCNC(=N)N)NC(=O)[C@@H](NC(=O)[C@@H](NC(=O)[C@H](CCCCN)NC(=O)[C@H](CCCNC(=N)N)NC(=O)CNC(=O)[C@H](CCCNC(=N)N)NC(=O)CCCCCCCCC)C(C)C)C(C)C)C(=O)N[C@@H](CCCCN)C(=O)O)C(C)C)C(C)C (I: Decanoyl-RGRKVVRRKK-OH / II: Decanoyl-RGRKVVRR; amide I:9-II:C)	6 (≈ 15.6 µg/mL)	38.1	Active	3 (≈ 7.8 µg/mL)	1.5 (≈ 3.9 µg/mL)	Active	131	1.5 (≈ 3.9 µg/mL)	6 (≈ 15.6 µg/mL)	Active	3 (≈ 7.8 µg/mL)	> 10000	3 (≈ 7.8 µg/mL)	3 (≈ 7.8 µg/mL)	3 (≈ 7.8 µg/mL)	>80	3 (≈ 7.8 µg/mL)	3 (≈ 7.8 µg/mL)	3 (≈ 7.8 µg/mL)	–	Activity (Pseudomonas aeruginosa [12]): 51.1%
CCCC(=O)N[C@@H](CCCNC(=N)N)C(=O)NCC(=O)N[C@@H](CCCNC(=N)N)C(=O)N[C@@H](CCCCN)C(=O)NCC(=O)NCC(=O)N[C@@H](CCCNC(=N)N)C(=O)N[C@@H](CCCNC(=N)N)C(=O)NCCCC[C@H](NC(=O)[C@H](CCCNC(=N)N)NC(=O)[C@H](CCCNC(=N)N)NC(=O)CNC(=O)CNC(=O)[C@H](CCCCN)NC(=O)[C@H](CCCNC(=N)N)NC(=O)CNC(=O)[C@H](CCCNC(=N)N)NC(=O)CCC)C(=O)N[C@@H](CCCCN)C(=O)O (I: Butyryl-RGRKGGRRKK-OH / II: Butyryl-RGRKGGRR; amide I:9-II:C)	–	769	–	–	–	–	72.4	–	3 (≈ 6.79 µg/mL)	–	6 (≈ 13.6 µg/mL)	> 10000	–	–	–	–	–	–	6 (≈ 13.6 µg/mL)	2.5	EC50 (Lipopolysaccharide (LPS) [21]): 345 µM
CCCCCCCC(=O)N[C@@H](CCCNC(=N)N)C(=O)NCC(=O)N[C@@H](CCCNC(=N)N)C(=O)N[C@@H](CCCCN)C(=O)NCC(=O)NCC(=O)N[C@@H](CCCNC(=N)N)C(=O)N[C@@H](CCCNC(=N)N)C(=O)NCCCC[C@H](NC(=O)[C@H](CCCNC(=N)N)NC(=O)[C@H](CCCNC(=N)N)NC(=O)CNC(=O)CNC(=O)[C@H](CCCCN)NC(=O)[C@H](CCCNC(=N)N)NC(=O)CNC(=O)[C@H](CCCNC(=N)N)NC(=O)CCCCCCC)C(=O)N[C@@H](CCCCN)C(=O)O (I: Octanoyl-RGRKGGRRKK-OH / II: Octanoyl-RGRKGGRR; amide I:9-II:C)	3 (≈ 7.12 µg/mL)	117	–	3 (≈ 7.12 µg/mL)	3 (≈ 7.12 µg/mL)	Active	112	3 (≈ 7.12 µg/mL)	3 (≈ 7.12 µg/mL)	Active	3 (≈ 7.12 µg/mL)	> 10000	3 (≈ 7.12 µg/mL)	6 (≈ 14.2 µg/mL)	3 (≈ 7.12 µg/mL)	–	3 (≈ 7.12 µg/mL)	3 (≈ 7.12 µg/mL)	3 (≈ 7.12 µg/mL)	20	FC (Pseudomonas aeruginosa [22]): 3; fractional inhibitory concentration index (FICI) (Escherichia coli [23]): 1; fractional inhibitory concentration index (FICI) (Pseudomonas aeruginosa [24]): 0.38; Activity (Pseudomonas aeruginosa [25]): Active; fractional inhibitory concentration index (FICI) (Pseudomonas aeruginosa [26]): 0.56; Activity (Pseudomonas aeruginosa [27]): Active; fractional inhibitory concentration index (FICI) (Pseudomonas aeruginosa [28]): 0.56; fractional inhibitory concentration index (FICI) (Escherichia coli [29]): 0.5; Activity (Pseudomonas aeruginosa [30]): Dose-dependent effect; fractional inhibitory concentration index (FICI) (Pseudomonas aeruginosa [31]): 0.56; fractional inhibitory concentration index (FICI) (Escherichia coli [32]): 0.38; fractional inhibitory concentration index (FICI) (Pseudomonas aeruginosa [33]): 0.38; fractional inhibitory concentration index (FICI) (Escherichia coli [34]): 0.56; fractional inhibitory concentration index (FICI) (Escherichia coli [35]): 0.56
CC(C)[C@H](NC(=O)[C@H](CCCCN)NC(=O)[C@H](CCCNC(=N)N)NC(=O)CNC(=O)[C@@H](N)CCCNC(=N)N)C(=O)N[C@H](C(=O)N[C@@H](CCCNC(=N)N)C(=O)N[C@@H](CCCNC(=N)N)C(=O)NCCCC[C@H](NC(=O)[C@H](CCCNC(=N)N)NC(=O)[C@H](CCCNC(=N)N)NC(=O)[C@@H](NC(=O)[C@@H](NC(=O)[C@H](CCCCN)NC(=O)[C@H](CCCNC(=N)N)NC(=O)CNC(=O)[C@@H](N)CCCNC(=N)N)C(C)C)C(C)C)C(=O)N[C@@H](CCCCN)C(=O)O)C(C)C (I: H-RGRKVVRRKK-OH / II: H-RGRKVVRR; amide I:9-II:C)	6 (≈ 13.7 µg/mL)	> 1000	Active	10 (≈ 22.9 µg/mL)	3 (≈ 6.87 µg/mL)	–	82.4	3 (≈ 6.87 µg/mL)	3 (≈ 6.87 µg/mL)	–	6 (≈ 13.7 µg/mL)	> 10000	6 (≈ 13.7 µg/mL)	3 (≈ 6.87 µg/mL)	6 (≈ 13.7 µg/mL)	>80	6 (≈ 13.7 µg/mL)	6 (≈ 13.7 µg/mL)	6 (≈ 13.7 µg/mL)	–	Activity (Pseudomonas aeruginosa [22]): inactive
